Patent publication US5932584A, “Optically active 2,3-dihydroimidazo(1,2-C) quinazoline derivatives, the preparation and antihypertensive use thereof” (National Science Council, priority 1997, dated 1999)
Read-outs that look alike come from different tables or passages of the source.

Target: α1 -Adrenergic receptor
Experiment: α1-Adrenergic receptor binding assay ([^3 H] prazosin competition, rat brain cortex membranes)
Procedure: Rat brain cortex membranes were prepared for [^3 H] prazosin or [^3 H] clonidine binding by homogenizing tissues in 0.32 M sucrose buffered with 50 mM Tris buffer (pH 7.4) in a tissue/buffer ratio of 1:10. After the removal of nuclei by centrifugation at 1000×g for 10 min, P2 membranes were pelleted by centrifuging the supernatant at 22,000×g for 20 min. After two periods of centrifugation at 22,000×g and resuspension in fresh buffer, the membrane suspension (about 2 mg/ml protein) was ready for use.
α1 -Adrenergic receptor binding assays (in triplicate) were carried out with 0.2 nM [^3 H] prazosin in a final volume of 1.0 ml of Tris buffer at pH 7.4 for 30 min at room temperature, using […] phentolamine to determine non-specific binding. […] The concentrations of synthetic compounds for competition binding were in the range of 0.1-100 μM. After binding had reached equilibrium, incubations were terminated by collecting the membranes on Whatman GF/B filters; the filters were washed twice with 5 ml of 50 mM Tris buffer (pH 7.4) at 4° C.
[^3 H]prazosin (76.6 Ci/mmol) and [^3 H]clonidine (47.0 Ci/mmol) were purchased from NEN. All other chemicals used were reagent grade and were purchased from Sigma (St. Louis, Mo.).

[1] = preliminary results, read-out: affinity to α1 -adrenoceptor (Ki)
[2] = rat brain cortex membranes, 0.2 nM [^3 H] prazosin, pH 7.4, 30 min, room temperature, read-out: α1 Binding (Ki)

Ki [1] [nM] | Ki [2] [nM] | Compound
0.1 | 0.1 | COc1ccccc1N1CCN(C[C@H]2CN=C3c4ccccc4NC(=O)N32)CC1 [Example 18]
554 | 554 | COc1ccccc1N1CCN(C[C@@H]2CN=C3c4ccccc4N=C(SC)N32)CC1 [Example 17]
3.55 |  | COc1ccccc1N1CCN(CC2CN=C3c4ccccc4N=C(SC)N32)CC1 (racemic) [(RS)-I, reference compound]

Second part, the compound before the results:

Compound | Ki [1] [nM] | Ki [2] [nM]
COc1ccccc1N1CCN(C[C@H]2CN=C3c4ccccc4N=C(SC)N32)CC1 [Example 16] | 1.88 | 1.88
COc1ccccc1N1CCN(C[C@@H]2CN=C3c4ccccc4NC(=O)N32)CC1 [Example 19] |  | 26
